Patent US9732078B2, “Therapeutic use of imidazopyridine derivatives” (SANOFI, priority 2012, dated 2017)

Columns and labels:
Format in all cases: cell-based
[1] = test system: TCC97-7 bladder cancer tumour cells carrying the Ser249Cys mutation of FGF receptor 3; assay: Inhibition of serum-induced proliferation of TCC97-7 bladder cancer cells (count of Hoechst 33342-labelled nuclei after 3 days); conditions: TCC97-7 cells in presence of serum
Description: To do this, 2000 cells are seeded in the morning in 50 μl of complete medium (Ham-F/12, 1% FCS, 2 mM glutamine, non-essential amino acids, sodium pyruvate, 1% insulin/transferrin/selenium, hydrocortisone). In the evening, 50 μl of the various compounds are added at 0.02, 0.2, 2 or 20 μM after dilution in complete culture medium in order to obtain final concentrations of 0.01, 0.1, 1 and 10 μM. After 3 days, the cell proliferation is evaluated by measuring the number of nuclei at the bottom of each well corresponding to a number of cells. The nuclei are detected by means of labelling with Hoechst 33342 (Invitrogen, ref H3570). 100 μl of Hoechst 33342 diluted to 1/5000th in PBS are added to each well for 30 min at ambient temperature on non-fixed cells. The nuclei are detected by fluorescence at 350 nm at ×2 magnification with an Operetta (PerkinElmer) using the Acapella (PerkinElmer) imaging software and analysed using the Columbus (PerkinElmer) image analysis software. The percentage inhibition of the cell proliferation is calculated by considering the number of nuclei present in the wells in which the TCC97-7 cells are cultured in the absence of FGF-R antagonists to be 0% inhibition. 100% inhibition would correspond to a well no longer containing cells.

[2] = test system: TCC97-7 bladder cancer tumour cells carrying the Ser249Cys mutation of FGF receptor 3; assay: Cytotoxic effect: percentage of permeabilized (very fluorescent, Hoechst 33342) TCC97-7 cells; conditions: 3 days
Description: In parallel to their antiproliferative capacity, the potential cytotoxic effect of the FGF-R antagonists is measured by means of quantifying the number of cells of which the membranes are permeabilized. The appearance of pores in the plasma membrane of the cells corresponds to a state of cell death which enables the Hoechst 33342 to penetrate more easily into the cell. This is reflected by a very strong increase in the amount of fluorescence detected in the nuclei. The percentage of cells in a state of cell death is calculated by the ratio between the number of very fluorescent nuclei to the total number of nuclei, multiplied by 100. The observations are carried out in the same way as the quantification of the nuclei for the cell proliferation.

[3] = test system: TCC97-7 bladder cancer cells carrying the Ser249Cys mutation of FGF receptor 3; assay: Reduction of intracellular ATP content of TCC97-7 cells (Cell Titer-Glo, 3 days, serum-supplemented medium); conditions: TCC97-7 cells in presence of serum
Description: Evaluation of the Capacity of the FGF-R Antagonists to Reduce the ATP Content of TCC97-7 Bladder Cancer Cells Carrying the Ser249Cys Mutation of FGF Receptor 3, Cultured in a Serum-Supplemented Medium
To do this, 3000 cells are seeded in 50 μl of complete medium (Ham-F/12, 1% FCS, […], non-essential amino acids, sodium pyruvate, 1% insulin/transferrin/selenium, hydrocortisone). 16 hours later, 50 μl of the various compounds are added at 0.2, 2, 20 and 60 μM after dilution in complete culture medium in order to obtain final concentrations of 0.1, 1, 10 and 30 μM. After 3 days, the ATP content of the cells is measured using the Cell Titer-Glo® Luminescent Cell Viability Assay kit (Promega, France) according to the supplier's recommendations. The percentage inhibition of the amount of intracellular ATP is calculated by considering the ATP content of the cells cultured in the absence of antagonist to be 0% inhibition. 100% inhibition would correspond to a well in which the ATP content is zero.

| Compound | Inhibition of proliferation (%) ([1]; 0.01 μM) | Inhibition of proliferation (%) ([1]; 0.1 μM) | Inhibition of proliferation (%) ([1]; 1 μM) | Inhibition of proliferation (%) ([1]; 10 μM) | Cytotoxicity (% of permeable cells) ([2]; 0.01 μM) | Cytotoxicity (% of permeable cells) ([2]; 0.1 μM) | Cytotoxicity (% of permeable cells) ([2]; 1 μM) | Cytotoxicity (% of permeable cells) ([2]; 10 μM) | Inhibition of the amount of intracellular ATP (%) ([3]; 0.1 μM) | Inhibition of the amount of intracellular ATP (%) ([3]; 1 μM) | Inhibition of the amount of intracellular ATP (%) ([3]; 10 μM) | Inhibition of the amount of intracellular ATP (%) ([3]; 30 μM) |
| --- | --- | --- | --- | --- | --- | --- | --- | --- | --- | --- | --- | --- |
| CCCn1c(=O)n(Cc2ccc(F)cc2)c(=O)c2cc(C(=O)c3nc(-c4cnc(N(C)C)nc4)c4ccccn34)ccc21 [compound 232] | −6% | 1% | 20% | 79% | 3% | 3% | 4% | 23% | 7% | 8% | 45% | – |
| Cn1c(=O)n(Cc2cccc(F)c2)c(=O)c2cc(C(=O)c3nc(-c4cccc(C(N)=O)c4)c4ccccn34)ccc21 [compound 108] | −4% | −5% | 6% | 22% | 4% | 5% | 4% | 4% | – | – | – | – |
| Cn1c(=O)n(Cc2ccc(F)cc2)c(=O)c2cc(C(=O)c3nc(-c4cccc(C(=O)[O-])c4)c4ccccn34)ccc21.[Na+] [compound 49, Sodium salt of 3-(3-{[3-(4-fluorobenzyl)-1-methyl-2,4-dioxo-1,2,3,4-tetrahydroquinazolin-6-yl]carbonyl}imidazo[1,5-a]pyridin-1-yl)benzoic acid] | – | 9% | 55% | 81% | 5% | 5% | 6% | 12% | −2% | 14% | 67% | – |
| Cc1ccc(Cn2c(=O)c3cc(C(=O)c4nc(-c5cccnc5)c5ccccn45)ccc3n(C)c2=O)s1 [compound 220] | 4% | 3% | 13% | 49% | 6% | 5% | 5% | 11% | 6% | 10% | 16% | 60% |
| CCCn1c(=O)n(CCOc2ccc(F)cc2)c(=O)c2cc(C(=O)c3nc(-c4cccc(C(=O)[O-])c4)c4ccccn34)ccc21.[Na+] [compound 221, Sodium salt of 3-[3-({3-[2-(4-fluorophenoxy)ethyl]-1-propyl-2,4-dioxo-1,2,3,4-tetrahydroquinazolin-6-yl}carbonyl)imidazo[1,5-a]pyridin-1-yl]benzoic acid] | 5% | 27% | 80% | 85% | 4% | 5% | 6% | 7% | −2% | 7% | 73% | – |
| Cc1ccc(Cn2c(=O)c3cc(C(=O)c4nc(-c5cccc(C(=O)[O-])c5)c5ccccn45)ccc3n(C)c2=O)s1.[Na+] [compound 291] | 1% | 5% | 40% | 81% | 2% | 2% | 2% | 4% | 8% | 27% | 71% | – |
| CCCn1c(=O)n(CCCC(C)C)c(=O)c2cc(C(=O)c3nc(-c4cccc(C(=O)[O-])c4)c4ccccn34)ccc21.[Na+] [compound 207] | 2% | 7% | 45% | 82% | 5% | 4% | 5% | 23% | 10% | 23% | 62% | – |
| CCCn1c(=O)n(Cc2ccc(C)s2)c(=O)c2cc(C(=O)c3nc(-c4cccc(C(=O)[O-])c4)c4ccccn34)ccc21.[Na+] [compound 224] | 3% | 0% | 27% | 82% | 3% | 3% | 4% | 9% | −1% | 20% | 83% | – |
| COCn1c(=O)n(Cc2ccc(F)cc2)c(=O)c2cc(C(=O)c3nc(-c4cccc(C(=O)[O-])c4)c4ccccn34)ccc21.[Na+] [compound 71] | 0% | 1% | 14% | 85% | 4% | 4% | 5% | 1% | −4% | −1% | 94% | – |
| Cn1c(=O)n(Cc2ccc(F)cc2)c(=O)c2cc(C(=O)c3ncc4ccccn34)ccc21 [compound 226] | 3% | 8% | 28% | 73% | 5% | 6% | 10% | 25% | −1% | 5% | 41% | – |
| CCOC(=O)c1cccc(-c2nc(C(=O)c3ccc4c(c3)c(=O)n(Cc3ccc(F)cc3)c(=O)n4C)n3ccccc23)c1 [compound 79] | 5% | 0% | 17% | 71% | 1% | 1% | 2% | 10% | −6% | 7% | 72% | – |
| Cc1nnc(-c2cccc(-c3nc(C(=O)c4ccc5c(c4)c(=O)n(Cc4ccc(F)cc4)c(=O)n5C)n4ccccc34)c2)o1 [compound 140] | 0% | −1% | −7% | 26% | 1% | 1% | 1% | 2% | – | – | – | – |
